This is an account of results in BindingDB's records for doi:10.3109/14756360903049042 (Medical University of Bialystok, 2010).

One may read the Ki as the dissociation constant of the complex between target and ligand, obtained from inhibition or displacement. The low end stands for higher affinity, the high end for lower affinity.

For one experiment, the target named is Plasminogen (Homo sapiens, UniProt P00747). The experiment can be described thus: Amidolytic Activity Assay (Plasmin). The settings on record: pH 7.4. The protocol:
Determination of amidolytic activity was performed as described previously [Okada et al., Chem. Pharm. Bull., 36:1289-1297]. Detailed description of the method is given below. To 0.2 cm3 of examined compound (1−11; 0.15 M NaCl as control), buffer, and 0.1 cm^3 of enzyme solution was added: tris buffer−0.5 cm^3 (pH = 7.4); enzyme: plasmin (0.4 unit/cm^3); synthetic substrate: S-2251 (0.2 cm^3, 3 mM/dm^3).

A further experiment has as its target Serine protease 1 (Homo sapiens, UniProt P07477). Kind of experiment: Amidolytic Activity Assay (Trypsin). The settings on record: pH 7.5. The procedure:
Determination of amidolytic activity was performed as described previously [Okada et al., Chem. Pharm. Bull., 36:1289-1297]. Detailed description of the method is given below. […]

The structures appear in SMILES notation.

Serine protease 1, sequence (P07477 whole entry): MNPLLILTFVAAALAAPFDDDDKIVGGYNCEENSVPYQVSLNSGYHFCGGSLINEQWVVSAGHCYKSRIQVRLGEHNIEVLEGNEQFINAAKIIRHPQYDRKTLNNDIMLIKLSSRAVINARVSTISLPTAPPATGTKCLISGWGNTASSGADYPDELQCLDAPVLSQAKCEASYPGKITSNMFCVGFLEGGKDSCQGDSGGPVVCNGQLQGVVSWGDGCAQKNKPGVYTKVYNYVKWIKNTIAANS
Plasminogen, sequence (P00747 97-580 limits assumed): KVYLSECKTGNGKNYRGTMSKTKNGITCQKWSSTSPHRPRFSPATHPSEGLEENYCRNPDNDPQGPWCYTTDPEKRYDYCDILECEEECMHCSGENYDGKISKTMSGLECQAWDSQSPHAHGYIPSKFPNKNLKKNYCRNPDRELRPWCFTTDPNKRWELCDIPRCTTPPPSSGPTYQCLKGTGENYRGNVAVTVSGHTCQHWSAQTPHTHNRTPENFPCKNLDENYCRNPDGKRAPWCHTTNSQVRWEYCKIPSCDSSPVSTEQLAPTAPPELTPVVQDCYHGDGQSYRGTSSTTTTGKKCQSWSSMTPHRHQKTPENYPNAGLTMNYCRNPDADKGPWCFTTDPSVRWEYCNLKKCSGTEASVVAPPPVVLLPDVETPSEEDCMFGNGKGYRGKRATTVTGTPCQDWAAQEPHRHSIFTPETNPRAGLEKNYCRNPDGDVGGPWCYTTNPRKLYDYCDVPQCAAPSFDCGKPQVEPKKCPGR
Plasminogen, sequence (P00747 581-810 limits assumed): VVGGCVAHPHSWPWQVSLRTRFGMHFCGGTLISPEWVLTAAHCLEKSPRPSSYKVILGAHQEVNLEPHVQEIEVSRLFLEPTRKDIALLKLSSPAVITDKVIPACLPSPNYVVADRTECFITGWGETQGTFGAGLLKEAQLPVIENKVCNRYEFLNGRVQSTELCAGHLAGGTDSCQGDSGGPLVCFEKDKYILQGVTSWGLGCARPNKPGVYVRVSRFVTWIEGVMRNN

At Plasminogen, `C[C@H](NC(=O)[C@H](N)CO)C(=O)N[C@@H](CCCNC(=N)N)C(=O)NCCO` [H-D-Ser-Ala-Arg-NH-(CH2)2-OH (9)] had a Ki of 727 µM.

Take `C[C@H](NC(=O)[C@H](N)CO)C(=O)N[C@@H](CCCNC(=N)N)C(=O)NCCCO` [H-D-Ser-Ala-Arg-NH-(CH2)3-OH (10)]: the Ki at Serine protease 1 is 15 µM; on Plasminogen it was 1090 µM.

On to `C[C@H](NC(=O)[C@H](N)CO)C(=O)N[C@@H](CCCNC(=N)N)C(=O)NCCCCO` [H-D-Ser-Ala-Arg-NH-(CH2)4-OH (11)], for which the Ki at Serine protease 1 was determined as 10 µM; on Plasminogen, 545 µM.

`C[C@H](NC(=O)[C@H](N)CO)C(=O)N[C@@H](CCCNC(=N)N)C(=O)NCCCCCN` [H-D-Ser-Ala-Arg-NH-(CH2)5-NH2 (4)] yielded a Ki on Plasminogen of 37 µM.

Take `C[C@H](NC(=O)[C@H](N)CO)C(=O)N[C@@H](CCCNC(=N)N)C(=O)NCCCCCCN` [H-D-Ser-Ala-Arg-NH-(CH2)6-NH2 (5)]: the Ki on Serine protease 1 was 2.5 µM; at Plasminogen it was 181 µM.

`C[C@H](NC(=O)[C@H](N)CO)C(=O)N[C@@H](CCCNC(=N)N)C(=O)NCCCCCCCN` [H-D-Ser-Ala-Arg-NH-(CH2)7-NH2 (6)]: the Ki at Serine protease 1 came out at 30 µM; at Plasminogen it was 364 µM.

On Serine protease 1, `C[C@H](NC(=O)[C@H](N)CO)C(=O)N[C@@H](CCCNC(=N)N)C(=O)NCCCCCCCCN` [H-D-Ser-Ala-Arg-NH-(CH2)8-NH2 (7)] showed a Ki of 10 µM.

Take `C[C@H](NC(=O)[C@H](N)CO)C(=O)N[C@@H](CCCNC(=N)N)C(=O)NCCCCCCCCCN` [H-D-Ser-Ala-Arg-NH-(CH2)9-NH2 (8)]: the Ki is 5 µM on Serine protease 1 and 90 µM at Plasminogen.
